Laboratory results reported in ChEMBL document CHEMBL1201861, “Genomics of Drug Sensitity in Cancer screening data, Wellcome Trust Sanger Institute”.

Assays:
Test in all cases: cells
U-251 = assay type: functional, cell-based, Homo sapiens; details: Homo sapiens, U-251;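 further: growth inhibition of human U-251 cells, read out through a cell viability assay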
Description: SANGER: Inhibition of human U251 cell growth in a cell viability assay.

BB65-RCC = assay type: functional, cell-based, Homo sapiens; details: Homo sapiens, BB65-RCC;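 further: growth inhibition of the cell line, measured with a cell viability assay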
Description: SANGER: Inhibition of human BB65-RCC cell growth in a cell viability assay.

RPMI-7951 = assay type: functional, cell-based, Homo sapiens; details: Homo sapiens, RPMI-7951
Description: SANGER: Inhibition of human RPMI-7951 cell growth in a cell viability assay.

Becker = assay type: functional, cell-based, Homo sapiens; details: Homo sapiens, Becker;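 further: growth inhibition of Becker cells, read out with a cell viability assay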
Description: SANGER: Inhibition of human Becker cell growth in a cell viability assay.

A-427 = assay type: functional, cell-based, Homo sapiens; details: Homo sapiens, A-427;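 further: growth inhibition of human A-427 cells, read out by a cell viability assay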
Description: SANGER: Inhibition of human A427 cell growth in a cell viability assay.

TE-5 = assay type: functional, cell-based, Homo sapiens; details: Homo sapiens, TE-5;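 further: inhibition of cell growth, read out by a cell viability assay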
Description: SANGER: Inhibition of human TE-5 cell growth in a cell viability assay.

RPMI-2650 = assay type: functional, cell-based, Homo sapiens; details: Homo sapiens, RPMI-2650
Description: SANGER: Inhibition of human RPMI-2650 cell growth in a cell viability assay.

HCC2218 = assay type: functional, cell-based; details: Homo sapiens;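 further: cell viability assay read-out, with IC50 given as the concentration that inhibits growth of the cell line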
Description: SANGER: Inhibition of human HCC2218 cell growth in a cell viability assay.

SK-MEL-1 = assay type: functional, cell-based; details: Homo sapiens;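 further: growth inhibition of human SK-MEL-1 cells, read out by a cell viability assay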
Description: SANGER: Inhibition of human SK-MEL-1 cell growth in a cell viability assay.

C8166 = assay type: functional, cell-based; details: Homo sapiens;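 further: growth inhibition of human C8166 cells measured by a cell viability assay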
Description: SANGER: Inhibition of human C8166 cell growth in a cell viability assay.

NCI-H28 = assay type: functional, cell-based, Homo sapiens; details: Homo sapiens, NCI-H28;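 further: growth inhibition of human NCI-H28 cells, read out as cell viability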
Description: SANGER: Inhibition of human NCI-H28 cell growth in a cell viability assay.

HCC1395 = assay type: functional, cell-based, Homo sapiens; details: Homo sapiens, HCC1395;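 further: growth inhibition of HCC1395 cells, read out by a cell viability assay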
Description: SANGER: Inhibition of human HCC1395 cell growth in a cell viability assay.

NCI-H1563 = assay type: functional, cell-based, Homo sapiens; details: Homo sapiens, NCI-H1563;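 further: growth inhibition of human NCI-H1563 cells, read out with a cell viability assay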
Description: SANGER: Inhibition of human NCI-H1563 cell growth in a cell viability assay.

NCI-H720 = assay type: functional, cell-based; details: Homo sapiens;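 further: growth inhibition of human NCI-H720 cells determined by a cell viability assay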
Description: SANGER: Inhibition of human NCI-H720 cell growth in a cell viability assay.

OVCAR-5 = assay type: functional, cell-based, Homo sapiens; details: Homo sapiens, OVCAR-5;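 further: growth inhibition of human OVCAR-5 cells, read out with a cell viability assay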
Description: SANGER: Inhibition of human OVCAR-5 cell growth in a cell viability assay.

SCC-4 = assay type: functional, cell-based, Homo sapiens; details: Homo sapiens, SCC-4;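 further: growth inhibition of human SCC-4 cells, read out as cell viability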
Description: SANGER: Inhibition of human SCC-4 cell growth in a cell viability assay.

RPMI-8226 = assay type: functional, cell-based; details: Homo sapiens
Description: SANGER: Inhibition of human RPMI-8226 cell growth in a cell viability assay.

NCI-H1755 = assay type: functional, cell-based, Homo sapiens; details: Homo sapiens, NCI-H1755;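 further: cell viability readout used to measure growth inhibition of NCI-H1755 cells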
Description: SANGER: Inhibition of human NCI-H1755 cell growth in a cell viability assay.

SF-126 = assay type: functional, cell-based, Homo sapiens; details: Homo sapiens, SF-126;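 further: growth inhibition of human SF126 cells, read out with a cell viability assay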
Description: SANGER: Inhibition of human SF126 cell growth in a cell viability assay.

MOLT-16 = assay type: functional, cell-based; details: Homo sapiens;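 further: growth inhibition of human MOLT-16 cells, read out with a cell viability assay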
Description: SANGER: Inhibition of human MOLT-16 cell growth in a cell viability assay.

CHL-1 = assay type: functional, cell-based, Homo sapiens; details: Homo sapiens, CHL-1;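 further: cell growth inhibition, read out with a cell viability assay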
Description: SANGER: Inhibition of human CHL-1 cell growth in a cell viability assay.

HEL = assay type: functional, cell-based, Homo sapiens; details: Homo sapiens, HEL;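 further: growth inhibition of HEL cells, read out with a cell viability assay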
Description: SANGER: Inhibition of human HEL cell growth in a cell viability assay.

HT-1080 = assay type: functional, cell-based, Homo sapiens; details: Homo sapiens, HT-1080
Description: SANGER: Inhibition of human HT-1080 cell growth in a cell viability assay.

HSC-2 = assay type: functional, cell-based, Homo sapiens; details: Homo sapiens, HSC-2;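 further: growth inhibition of human HSC-2 cells, read out by a cell viability assay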
Description: SANGER: Inhibition of human HSC-2 cell growth in a cell viability assay.

G-402 = assay type: functional, cell-based, Homo sapiens; details: Homo sapiens, G-402
Description: SANGER: Inhibition of human G-402 cell growth in a cell viability assay.

SBC-5 = assay type: functional, cell-based, Homo sapiens; details: Homo sapiens, SBC-5;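 further: cell viability assay read-out, IC50 is the concentration that inhibits growth of the cells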
Description: SANGER: Inhibition of human SBC-5 cell growth in a cell viability assay.

PC-3 = assay type: functional, cell-based, Homo sapiens; details: Homo sapiens, PC-3;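 further: cell viability assay measuring growth inhibition of PC-3 cells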
Description: SANGER: Inhibition of human PC-3 cell growth in a cell viability assay.

SW 962 = assay type: functional, cell-based, Homo sapiens; details: Homo sapiens, SW 962;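 further: growth inhibition of human SW962 cells, read out by a cell viability assay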
Description: SANGER: Inhibition of human SW962 cell growth in a cell viability assay.

SNU-449 = assay type: functional, cell-based, Homo sapiens; details: Homo sapiens, SNU-449
Description: SANGER: Inhibition of human SNU-449 cell growth in a cell viability assay.

A204 = assay type: functional, cell-based, Homo sapiens; details: Homo sapiens, A204;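 further: growth inhibition of human A204 cells, read out with a cell viability assay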
Description: SANGER: Inhibition of human A204 cell growth in a cell viability assay.

HDLM-2 = assay type: functional, cell-based; details: Homo sapiens;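 further: cell viability assay measuring suppression of HDLM-2 proliferation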
Description: SANGER: Inhibition of human HDLM-2 cell growth in a cell viability assay.

COLO-684 = assay type: functional, cell-based; details: Homo sapiens
Description: SANGER: Inhibition of human COLO-684 cell growth in a cell viability assay.

MOLT-4 = assay type: functional, cell-based; details: Homo sapiens;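 further: growth inhibition of MOLT-4 cells, determined with a cell viability readout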
Description: SANGER: Inhibition of human MOLT-4 cell growth in a cell viability assay.

COR-L88 = assay type: functional, cell-based; details: Homo sapiens;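 further: growth inhibition of COR-L88 cells, read out with a cell viability assay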
Description: SANGER: Inhibition of human COR-L88 cell growth in a cell viability assay.

SCC-9 = assay type: functional, cell-based, Homo sapiens; details: Homo sapiens, SCC-9;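 further: Read-out is a cell viability assay, with values giving inhibition of cell growth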
Description: SANGER: Inhibition of human SCC-9 cell growth in a cell viability assay.

RVH-421 = assay type: functional, cell-based, Homo sapiens; details: Homo sapiens, RVH-421
Description: SANGER: Inhibition of human RVH-421 cell growth in a cell viability assay.

GAMG = assay type: functional, cell-based, Homo sapiens; details: Homo sapiens, GAMG;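 further: cell growth inhibition measured by a viability assay in the GAMG human cell line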
Description: SANGER: Inhibition of human GAMG cell growth in a cell viability assay.

HCE-T = assay type: functional, cell-based, Homo sapiens; details: Homo sapiens, HCE-T;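 further: cell viability assay read-out, reporting inhibition of HCE-T cell growth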
Description: SANGER: Inhibition of human HCE-T cell growth in a cell viability assay.

MDA-MB-175-VII = assay type: functional, cell-based, Homo sapiens; details: Homo sapiens, MDA-MB-175-VII
LS-1034 = assay type: functional, cell-based, Homo sapiens; details: Homo sapiens, LS-1034
Description: SANGER: Inhibition of human LS-1034 cell growth in a cell viability assay.

BEN = assay type: functional, cell-based, Homo sapiens; details: Homo sapiens, BEN;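 further: growth inhibition of the BEN cell line, read out with a cell viability assay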
Description: SANGER: Inhibition of human BEN cell growth in a cell viability assay.

PA-1 = assay type: functional, cell-based, Homo sapiens; details: Homo sapiens, PA-1;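 further: IC50 for suppression of PA-1 cell proliferation, determined with a cell viability read-out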
Description: SANGER: Inhibition of human PA-1 cell growth in a cell viability assay.

Mo = assay type: functional, cell-based; details: Homo sapiens
Description: SANGER: Inhibition of human Mo-T cell growth in a cell viability assay.

ABC-1 = assay type: functional, cell-based, Homo sapiens; details: Homo sapiens, ABC-1;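 further: growth inhibition of human ABC-1 cells, read out by a cell viability assay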
Description: SANGER: Inhibition of human ABC-1 cell growth in a cell viability assay.

RERF-LC-MS = assay type: functional, cell-based, Homo sapiens; details: Homo sapiens, RERF-LC-MS;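 further: growth inhibition of human RERF-LC-MS cells, read out by a cell viability assay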
Description: SANGER: Inhibition of human RERF-LC-MS cell growth in a cell viability assay.

HD-MY-Z = assay type: functional, cell-based, Homo sapiens; details: Homo sapiens, HD-MY-Z;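 further: growth inhibition of HD-MY-Z cells, read out with a cell viability assay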
Description: SANGER: Inhibition of human HD-MY-Z cell growth in a cell viability assay.

UO-31 = assay type: functional, cell-based; details: Homo sapiens;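 further: cell viability assay measuring inhibition of cell growth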
Description: SANGER: Inhibition of human U031 cell growth in a cell viability assay.

NCI-H1155 = assay type: functional, cell-based; details: Homo sapiens;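 further: cell growth inhibition measured by a viability assay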
Description: SANGER: Inhibition of human NCI-H1155 cell growth in a cell viability assay.

IA-LM = assay type: functional, cell-based, Homo sapiens; details: Homo sapiens, IA-LM;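 further: cell viability assay measuring growth inhibition of human IA-LM cells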
Description: SANGER: Inhibition of human IA-LM cell growth in a cell viability assay.

DU-145 = assay type: functional, cell-based, Homo sapiens; details: Homo sapiens, DU-145
Description: SANGER: Inhibition of human DU-145 cell growth in a cell viability assay.

K5 = assay type: functional, cell-based, Homo sapiens; details: Homo sapiens, K5
Description: SANGER: Inhibition of human K5 cell growth in a cell viability assay.

COc1cc(F)c(F)c(Nc2ccc(I)cc2F)c1NS(=O)(=O)C1(CC(O)CO)CC1 (stereo not drawn)
IC50 (U-251): > 5000 nM
IC50 (BB65-RCC): 3660 nM
IC50 (RPMI-7951): 761 nM
IC50 (Becker): > 5000 nM
IC50 (A-427): 4460 nM
IC50 (TE-5): 4520 nM
IC50 (RPMI-2650): > 5000 nM
IC50 (HCC2218): > 5000 nM
IC50 (SK-MEL-1): > 5000 nM
IC50 (C8166): > 5000 nM
IC50 (NCI-H28): > 5000 nM
IC50 (HCC1395): > 5000 nM
IC50 (NCI-H1563): 4470 nM
IC50 (NCI-H720): > 5000 nM
IC50 (OVCAR-5): 234 nM
IC50 (SCC-4): 5000 nM
IC50 (RPMI-8226): 4510 nM
IC50 (NCI-H1755): > 5000 nM
IC50 (SF-126): > 5000 nM
IC50 (MOLT-16): > 5000 nM
IC50 (CHL-1): 1180 nM
IC50 (HEL): > 5000 nM
IC50 (HT-1080): 538 nM
IC50 (HSC-2): > 5000 nM
IC50 (G-402): > 5000 nM
IC50 (SBC-5): > 5000 nM
IC50 (PC-3): > 5000 nM
IC50 (SW 962): 1500 nM
IC50 (SNU-449): 3850 nM
IC50 (A204): > 5000 nM
IC50 (HDLM-2): > 5000 nM
IC50 (COLO-684): > 5000 nM
IC50 (MOLT-4): > 5000 nM
IC50 (COR-L88): > 5000 nM
IC50 (SCC-9): > 5000 nM
IC50 (RVH-421): 33.5 nM
IC50 (GAMG): > 5000 nM
IC50 (HCE-T): > 5000 nM
IC50 (MDA-MB-175-VII): 2570 nM
IC50 (LS-1034): 1620 nM
IC50 (BEN): > 5000 nM
IC50 (PA-1): > 5000 nM
IC50 (Mo): > 5000 nM
IC50 (ABC-1): > 5000 nM
IC50 (RERF-LC-MS): 1330 nM
IC50 (HD-MY-Z): 886 nM
IC50 (UO-31): > 5000 nM
IC50 (NCI-H1155): > 5000 nM
IC50 (IA-LM): 4190 nM
IC50 (DU-145): 1060 nM

CN(Cc1cnc2nc(N)nc(N)c2n1)c1ccc(C(=O)N[C@@H](CCC(=O)O)C(=O)O)cc1 [METHOTREXATE]
IC50 (U-251): > 200 nM
IC50 (BB65-RCC): > 200 nM
IC50 (RPMI-7951): > 200 nM
IC50 (Becker): > 200 nM
IC50 (A-427): > 200 nM
IC50 (TE-5): > 200 nM
IC50 (RPMI-2650): > 200 nM
IC50 (SK-MEL-1): > 200 nM
IC50 (C8166): > 200 nM
IC50 (NCI-H28): > 200 nM
IC50 (HCC1395): > 200 nM
IC50 (NCI-H1563): > 200 nM
IC50 (OVCAR-5): > 200 nM
IC50 (SCC-4): > 200 nM
IC50 (K5): 59.8 nM
IC50 (RPMI-8226): 101 nM
IC50 (NCI-H1755): > 200 nM
IC50 (SF-126): > 200 nM
IC50 (MOLT-16): 11.6 nM
IC50 (CHL-1): > 200 nM
IC50 (HEL): 11.5 nM
IC50 (HT-1080): > 200 nM
IC50 (HSC-2): > 200 nM
IC50 (G-402): > 200 nM
IC50 (SBC-5): 69.4 nM
IC50 (PC-3): > 200 nM
IC50 (SW 962): > 200 nM
IC50 (SNU-449): > 200 nM
IC50 (A204): > 200 nM
IC50 (HDLM-2): 10 nM
IC50 (COLO-684): 37.5 nM
IC50 (MOLT-4): 21.2 nM
IC50 (SCC-9): > 200 nM
IC50 (RVH-421): > 200 nM
IC50 (GAMG): > 200 nM
IC50 (HCE-T): > 200 nM
IC50 (MDA-MB-175-VII): > 200 nM
IC50 (LS-1034): > 200 nM
IC50 (BEN): > 200 nM
IC50 (PA-1): > 200 nM
IC50 (Mo): > 200 nM
IC50 (ABC-1): > 200 nM
IC50 (RERF-LC-MS): > 200 nM
IC50 (HD-MY-Z): > 200 nM
IC50 (UO-31): > 200 nM
IC50 (NCI-H1155): > 200 nM
IC50 (IA-LM): > 200 nM
IC50 (DU-145): > 200 nM

COc1ccc(-c2ccc3c(N4CCOC[C@@H]4C)nc(N4CCOC[C@@H]4C)nc3n2)cc1CO [AZD-8055]
IC50 (U-251): > 2000 nM
IC50 (BB65-RCC): 308 nM
IC50 (RPMI-7951): 735 nM
IC50 (Becker): 1520 nM
IC50 (A-427): 962 nM
IC50 (TE-5): 684 nM
IC50 (RPMI-2650): 1680 nM
IC50 (HCC2218): 207 nM
IC50 (SK-MEL-1): > 2000 nM
IC50 (C8166): > 2000 nM
IC50 (NCI-H28): 587 nM
IC50 (HCC1395): > 2000 nM
IC50 (NCI-H1563): 789 nM
IC50 (NCI-H720): 29.4 nM
IC50 (OVCAR-5): 429 nM
IC50 (SCC-4): 585 nM
IC50 (RPMI-8226): 286 nM
IC50 (NCI-H1755): 1140 nM
IC50 (SF-126): 887 nM
IC50 (MOLT-16): 938 nM
IC50 (CHL-1): 327 nM
IC50 (HEL): 1940 nM
IC50 (HT-1080): 525 nM
IC50 (HSC-2): 1910 nM
IC50 (G-402): 99.8 nM
IC50 (SBC-5): 1550 nM
IC50 (PC-3): 722 nM
IC50 (SW 962): 472 nM
IC50 (SNU-449): 959 nM
IC50 (A204): 190 nM
IC50 (HDLM-2): 1210 nM
IC50 (COLO-684): 457 nM
IC50 (MOLT-4): 677 nM
IC50 (COR-L88): 423 nM
IC50 (SCC-9): > 2000 nM
IC50 (RVH-421): 636 nM
IC50 (GAMG): 557 nM
IC50 (HCE-T): 1180 nM
IC50 (MDA-MB-175-VII): 577 nM
IC50 (LS-1034): > 2000 nM
IC50 (BEN): 213 nM
IC50 (PA-1): 336 nM
IC50 (Mo): > 2000 nM
IC50 (ABC-1): > 2000 nM
IC50 (RERF-LC-MS): > 2000 nM
IC50 (HD-MY-Z): 841 nM
IC50 (UO-31): > 2000 nM
IC50 (NCI-H1155): > 2000 nM
IC50 (IA-LM): 596 nM
IC50 (DU-145): > 2000 nM
